What is called Kd is the free concentration of one partner at which half of the binding sites on the other are occupied at equilibrium, for simple one-to-one binding.

For experiment [1], the system named is 1G4 TCR. More on the design: method as in Robert et al, 2012. Particulars: ref Robert et al, 2012; cited from earlier work.
Experiment [2] relates to 1G4 TCR. In words: Laminar flow chamber (LFC) assay, 1G4 TCR-coated beads over pMHC surface. The following applies: for force sensitivity parameter xβ, 1G4 TCR: Bell's model fit of off-rates under force (survival at 1 s, corrected for non-specific binding), forces < 120 pN, 6–10 independent experiments combined; for force sensitivity parameter xβ, 1G4 TCR / zero-force off-rate (k0off) from Bell's model, 1G4 TCR: cell-free; for force sensitivity parameter xβ, 1G4 TCR / bond type at forces < 20 pN, 1G4 TCR / bond type under force, 1G4 TCR / zero-force off-rate (k0off) from Bell's model, 1G4 TCR / off-rate: 37°C; for bond type at forces < 20 pN, 1G4 TCR / bond type under force, 1G4 TCR: LFC; for bond type under force, 1G4 TCR: purified TCR; for zero-force off-rate (k0off) from Bell's model, 1G4 TCR: extrapolated from off-rates under force (survival at 1 s, corrected data); for off-rate: survival at 1 s, corrected data; for koff_0: source data of Fig 2E, 1G4 TCR, zero-force off-rate from Bell's model fit.
Procedure: In this assay, beads coated with TCR flow over a low density of pMHC while a camera records bead motion (Fig 2A, Movie EV1). […] The duration of TCR/pMHC binding is determined by an automated image analysis algorithm that detects the duration of bead arrests.
We first confirmed that bead arrests were mediated by single bonds. […] These constraints limit the LFC to a range of flow velocities that translate into pulling forces between ~ 5–120 pN with the upper bound determined, in part, by the binding rate and strength of the specific TCR/pMHC interaction. Finally, survival distributions were generated using the duration of individual beads for each TCR/pMHC pair and corrected by the corresponding distribution of arrests without pMHC for each paired velocity. We focus on the first 5 s of the distribution because on longer timescales measurement of bead arrest is often interrupted by a collision from a second bead.
Glass slides were rinsed twice in absolute ethanol then washed in a “piranha” solution composed of 70% H2SO4, 15% water and 15% H2O2 for 10 min, then rinsed with 5 litres of deionized water. […] Glass slides were then mounted in a home‐made multi‐channel thermo‐regulated flow chamber device, forming nine independent chambers of 12 mm length and 2 × 0.250 mm^2 section. Each chamber was then filled with a biotinylated pMHC solution in PBS with 0.1% BSA at chosen concentration, using cascade dilution to deposit in our 9‐chambers apparatus 8 different amounts of pMHC plus one chamber as a negative control. Microspheres (Dynal M‐450 tosly‐activated, Thermo Fisher, France) were rinsed three time in a 0.1 M borate solution, then incubated in a 200 μg/ml solution of anti‐6xHis‐tag antibody (Bio‐Rad, MCA1396, clone AD1.1.10, RRID: AB322084) overnight under constant agitation. Microspheres were rinsed three time in PBS/0.1% BSA then incubated prior to each experiment in a 200 μg/ml solution of 6xHis‐tag TCR.
The device forming nine independent chambers on a common glass slide was thermo‐regulated at 37°C by water circulation, set on an inverted microscope with a 10× lens (Leica, Germany) with a digital CCD camera (UEye, IDS Germany), and chamber entry was connected to the piping. For each independent chamber, the automaton performed cycles, each cycle being an experiment for a given shear flow. The automaton repeated cycles of microspheres agitation, microspheres injection in the chamber, launch of movie recording at 50 frames per seconds with M‐JPEG on‐the‐fly compression, and flow at a given shear for 90 s. Shear value was automatically modified for each new cycle until all chosen shear conditions had been recorded. The chamber was manually disconnected and next chamber was connected, then automaton was re‐launched. Raw data are in the form of movies of microspheres motion. A software suite written in Java as ImageJ plug‐ins retrieves microspheres trajectories and then detects microspheres arrest events using a velocity threshold and record arrests number, arrests duration and distance travelled by sedimented microspheres.
Binding linear densities are calculated as the ratio of the number of arrests on the distance travelled by microspheres sedimented on the chamber surface. Specific binding densities are calculated by subtracting control linear binding density from assay linear binding density for a given shear condition. Duration of arrests was pooled for experiments sharing identical TCR and pMHC molecules, identical amount of pMHC on the surface and identical shear rate, to build survival curves of the arrests. […] Each TCR‐pMHC bond was measured in 8 to 12 independent experiments.

In experiment [3] the target is 1G4 TCR. Particulars: solution affinity of NYE pMHC for 1G4 TCR used in Fig 4F; ref Pettmann et al, 2021; cited from earlier work.
The target of experiment [4] is NYE 3A peptide presented on HLA-A*02:01. In words: SPR. Background: Surface plasmon resonance follows binding to a sensor surface in real time, without labels.
Experiment [5] addresses NYE 3Y peptide presented on HLA-A*02:01. In words: SPR.
Experiment [6] deals with NYE 4E5E8E peptide presented on HLA-A*02:01. Description: SPR.
Experiment [7] has as its target NYE 6T peptide presented on HLA-A*02:01. Description: SPR.
For experiment [8], the target named is NYE 6V peptide presented on HLA-A*02:01. Description: SPR.
The target of experiment [9] is NYE 4D peptide presented on HLA-A*02:01. In words: SPR.
Experiment [10] addresses Tax 7R peptide presented on HLA-A*02:01 (human | HTLV-1). Description: SPR.
Experiment [11] concerns the target Tax 7T peptide presented on HLA-A*02:01 (human | HTLV-1). In words: SPR.
Experiment [12] concerns the target Tax 7Q peptide presented on HLA-A*02:01 (human | HTLV-1). In words: SPR.
The target in experiment [13] is Tax 5H peptide presented on HLA-A*02:01 (human | HTLV-1). Description: SPR.
Experiment [14] concerns the target Tax 5F peptide (printed ) presented on HLA-A*02:01 (human | HTLV-1). In words: SPR.

In the case of SLAMWITQV [NYE 3A], the “bond type under force at 25°C, 1G4 TCR” value in the experiment with 1G4 TCR [1] is reported as “canonical slip”. Also, in the experiment on 1G4 TCR [2], the “force sensitivity parameter xβ, 1G4 TCR” value was -0.016 nm; the “bond type at forces < 20 pN, 1G4 TCR” value is reported as “slip bonds”; the “bond type under force, 1G4 TCR” value is “did not display canonical slip or catch bonds”; the “zero-force off-rate (k0off) from Bell's model, 1G4 TCR” value is 0.42 s⁻¹.

As for SLLDWITQV [NYE 4D], the Kd on 1G4 TCR [3] is 140 µM. In the experiment on 1G4 TCR [2], the “force sensitivity parameter xβ, 1G4 TCR” value is 0.03228 nm. Also, the off-rate in the experiment with 1G4 TCR [2] (Force 5.76043 pN) was 0.2871 s⁻¹; in the experiment with 1G4 TCR [2] (Force 10.9915 pN) it was 0.9234 s⁻¹; with 1G4 TCR [2] (Force 35.7266 pN), 1.088 s⁻¹; in the experiment on 1G4 TCR [2] (Force 49.679 pN) it was 0.8939 s⁻¹; in the experiment with 1G4 TCR [2] (Force 66.9081 pN) it was 1.152 s⁻¹; in the experiment with 1G4 TCR [2] (Force 92.3818 pN) it was 1.23 s⁻¹. The substance further displayed a koff_0 in the experiment with 1G4 TCR [2] of -0.1852.

Turning to SLLEEITEV [NYE 4E5E8E], the “force sensitivity parameter xβ, 1G4 TCR” value in the experiment on 1G4 TCR [2] was determined as 0.06548 nm. Moreover, the off-rate in the experiment on 1G4 TCR [2] (Force 9.5329 pN) was found to be 0.132 s⁻¹; in the experiment with 1G4 TCR [2] (Force 20.855 pN), 0.181 s⁻¹; in the experiment on 1G4 TCR [2] (Force 57.9236 pN), 0.5269 s⁻¹; with 1G4 TCR [2] (Force 74.4128 pN), 0.6611 s⁻¹; with 1G4 TCR [2] (Force 98.8295 pN), 0.7569 s⁻¹. Further, in the experiment with 1G4 TCR [2], the koff_0 was -0.7399.

On to SLLMWTTQV [NYE 6T], for which the dissociation constant (Kd) on 1G4 TCR [3] was 162 µM. In addition, the “bond type under force at 25°C, 1G4 TCR” value in the experiment with 1G4 TCR [1] is recorded as “catch bonds”. In the experiment on 1G4 TCR [2], the “force sensitivity parameter xβ, 1G4 TCR” value is recorded as 0.019 nm; the “bond type at forces < 20 pN, 1G4 TCR” value was “slip bonds”; the “bond type under force, 1G4 TCR” value is given as “did not display canonical slip or catch bonds”; the “zero-force off-rate (k0off) from Bell's model, 1G4 TCR” value is 0.87 s⁻¹.

For SLLMWVTQV [NYE 6V], in the experiment on 1G4 TCR [2], the “force sensitivity parameter xβ, 1G4 TCR” value is given as 0.08939 nm. For the same substance, the off-rate in the experiment with 1G4 TCR [2] (Force 4.03 pN) is 0.1923 s⁻¹; with 1G4 TCR [2] (Force 10.0633 pN), 0.2976 s⁻¹; in the experiment on 1G4 TCR [2] (Force 34.1225 pN) it was 0.9589 s⁻¹; with 1G4 TCR [2] (Force 53.3785 pN), 1.216 s⁻¹; in the experiment on 1G4 TCR [2] (Force 71.3475 pN), 1.468 s⁻¹.

For SLYMWITQV [NYE 3Y], the “force sensitivity parameter xβ, 1G4 TCR” value in the experiment on 1G4 TCR [2] was 0.06402 nm. Further, the off-rate in the experiment with 1G4 TCR [2] (Force 4.46758 pN) came to 0.1572 s⁻¹; in the experiment on 1G4 TCR [2] (Force 11.986 pN), 0.462 s⁻¹; with 1G4 TCR [2] (Force 24.9875 pN), 0.9162 s⁻¹; in the experiment with 1G4 TCR [2] (Force 50.6303 pN), 1.043 s⁻¹; in the experiment with 1G4 TCR [2] (Force 74.2014 pN), 1.215 s⁻¹.

Consider “Soluble 1G4 TCR (from UniProt P01848 1-93; A0A5B9 1-129)”, for which the Kd in experiment [4] was found to be 7 µM; in experiment [5], 55 µM; in experiment [6], 17 µM; in [7], 161 µM; in experiment [8], 17 µM; in experiment [9] it was 139 µM.

Turning to “Soluble A6 TCR (from UniProt P01848 1-93; A0A5B9 1-129)”, the Kd in [10] is 21 µM; in experiment [11], 3000 nM; in experiment [12], 37 µM; in experiment [13] it was 56 µM; in [14], 3000 nM.

These data come from PMC10068313, “Mechanical forces impair antigen discrimination by reducing differences in T‐cell receptor/peptide–MHC off‐rates” (The EMBO Journal, 2022).
